The record followed here is patent publication US6800101B2, “Deactivatable biocides for hydrocarbonaceous products” (priority 2001, dated 2004).

Series [1] relates to microbial growth. In words: Evaluation of lower amounts of water. It is filed as cell-based. Particulars: 100 ppm; 90% Fischer-Tropsch diesel fuel, 10% minimal media; after 16 days. The text has this:
In this example, an experiment was done using a lower amount of water. 90% Fischer-Tropsch diesel fuel was mixed with 10% minimal media. One flask was used as a control and the other contained 100 ppm […].

Series [2] has as its system alkane degrading culture. Briefly: Evaluation of biocides: growth inhibition on FT diesel and ALAD diesel. As to microbial growth: key: −: No Growth; +: Growth (White Unless Otherwise Indicated). It is filed as cell-based. Here is the method:
Growth Media: A standard minimal media containing only inorganic nutrients required for bacterial growth was used. The medium used to supply inorganic micronutrients to the growing culture of alkane degrading organisms consisted of 0.1 g/L MgSO4.7H2O, 0.5 g/L NaNO3, 0.02 millimolar FeSO4 and 0.63 g/L K2HPO4 and 0.19 g/L KH2PO4 to achieve a pH of 7 to 7.3.
Test Conditions: 90 ml of growth media and 10 ml of either FT diesel or low sulfur (ALAD) diesel was added to 250 ml flasks. […] In addition to 2 alkynes, glutaraldehyde (glutaric dialdehyde 50%), was tested. The following summarizes the test conditions:
Sterile control (media boiled prior to adding FT or ALAD, not inoculated)
Inculated control (no inhibitor)
100 ppm inhibitor (on a total test volume basis or 1000 ppm in diesel)
1% inhibitor (on a total test volume basis or 10% in diesel).
After inoculation, the flasks were place on a shaker-table (135 rpm) at room temperature and observed daily.

For series [3], the system named is bacterial inoculum. In words: Neutralization of biocides with other nitrogen compounds. It is filed as cell-based. The settings on record: for microbial growth: n-C16; for neutralizing 10 ppm of gluteraldehyde: two moles per mole gluteraldehyde. The text has this:
The different nitrogen-containing compounds evaluated include the following:

Series [4] relates to Larval Sheepshead Minnow (Cyprinodon variegatus). In words: in vivo. It is filed as in vivo. The settings on record: Cyprinodon variegatus (sheepshead minnow), in vivo, 96 h. Here is the method:
[…]. EPA/600/4-90/027F Washington D.C. section 2.02, paragraph 1.) conducted at Pacific Eco-Risk Laboratories, Martinez, Calif.
LOEC is the Lowest Observable Effect Concentration and is defined as the minimum concentration where mortality is observed for the test species. […] LC-50, the concentration that will cause mortality of 50% of the organisms tested within 96 h, is a calculated value based on all observations.
The solutions were mixed for 48 hours prior to the start of the bioassays. The solutions were diluted to perform bioassays at starting glutaraldehyde concentrations of 100, 50, 37.5, 25, and 10, 5 mg/L

Where [5] appears, read: LA (ALAD) Diesel + 1 Wt %, Day 0.
Where [6] appears, read: LA (ALAD) Diesel + 1 Wt %, Day 1.
Setting [7] is: LA (ALAD) Diesel + 1 Wt %, Day 5.
The mark [8] stands for this setting: LA (ALAD) Diesel + 1 Wt %, Day 7.
The mark [9] stands for this setting: LA (ALAD) Diesel + 1 Wt %, Day 8.
Where [10] appears, read: LA (ALAD) Diesel + 1 Wt %, Day 19.
[11] abbreviates: LA (ALAD) Diesel + 100 ppm, Day 0.
Where [12] appears, read: LA (ALAD) Diesel + 100 ppm, Day 1.
The mark [13] stands for this setting: LA (ALAD) Diesel + 100 ppm, Day 5.
Where [14] appears, read: LA (ALAD) Diesel + 100 ppm, Day 7.
[15] abbreviates: LA (ALAD) Diesel + 100 ppm, Day 8.
Setting [16] is: LA (ALAD) Diesel + 100 ppm, Day 19.
[17] abbreviates: 10 ppm gluteraldehyde + two moles nitrogen compound per mole, day 0.
The mark [18] stands for this setting: 10 ppm gluteraldehyde + two moles nitrogen compound per mole, day 1.
Where [19] appears, read: 10 ppm gluteraldehyde + two moles nitrogen compound per mole, day 2.
Setting [20] is: 10 ppm gluteraldehyde + two moles nitrogen compound per mole, day 6.
Setting [21] is: 10 ppm gluteraldehyde + two moles nitrogen compound per mole, day 7.
The mark [22] stands for this setting: 10 ppm gluteraldehyde + two moles nitrogen compound per mole, day 9.
Where [23] appears, read: 10 ppm gluteraldehyde + two moles nitrogen compound per mole, day 13.
Setting [24] is: 10 ppm gluteraldehyde + two moles nitrogen compound per mole, day 20.
Where [25] appears, read: control: nitrogen compound without gluteraldehyde, day 0.
Setting [26] is: control: nitrogen compound without gluteraldehyde, day 1.
The mark [27] stands for this setting: control: nitrogen compound without gluteraldehyde, day 2.
Setting [28] is: control: nitrogen compound without gluteraldehyde, day 6.
[29] abbreviates: control: nitrogen compound without gluteraldehyde, day 7.
[30] abbreviates: control: nitrogen compound without gluteraldehyde, day 9.
Setting [31] is: control: nitrogen compound without gluteraldehyde, day 13.
[32] abbreviates: control: nitrogen compound without gluteraldehyde, day 20.

Consider `C#CCCCC` [H, 1-hexyne], for which the microbial growth entry is “no growth” in series [1]; “−” in series [2] (FT Diesel + 1 Wt %, Day 0); “−” in series [2] (FT Diesel + 1 Wt %, Day 1); “−” in series [2] (FT Diesel + 1 Wt %, Day 5); “−” in series [2] (FT Diesel + 1 Wt %, Day 7); “−” in series [2] (FT Diesel + 1 Wt %, Day 8). For the same molecule, the microbial growth entry in series [2] (FT Diesel + 1 Wt %, Day 19) is listed as “−”; in series [2] (FT Diesel + 100 ppm, Day 0) it was “−”; in series [2] (FT Diesel + 100 ppm, Day 1), “−”; in series [2] (FT Diesel + 100 ppm, Day 5), “+”; in series [2] (FT Diesel + 100 ppm, Day 7), “+”; in series [2] (FT Diesel + 100 ppm, Day 8) it was “+”. The microbial growth entry is listed as “+” in series [2] (FT Diesel + 100 ppm, Day 19); “−” in series [2] (setting [5]); “−” in series [2] (setting [6]); “−” in series [2] (setting [7]); “−” in series [2] (setting [8]); “−” in series [2] (setting [9]). The microbial growth result in series [2] (setting [10]) is on record as “−”; in series [2] (setting [11]), “−”; in series [2] (setting [12]), “−”; in series [2] (setting [13]), “+”; in series [2] (setting [14]), “+”; in series [2] (setting [15]) it was “+”. The microbial growth entry in series [2] (setting [16]) is given as “+”.

On to `CCNCC` [diethylamine, Diethylamine], for which, in series [3], the “toxicity of the nitrogen-containing compound to microbial growth” value (“toxicity” below) is given as “not excessively toxic”. For the same molecule, the microbial growth entry is “−” in series [3] (setting [17]); “−” in series [3] (setting [18]); “−” in series [3] (setting [19]); “+” in series [3] (setting [20]); “+” in series [3] (setting [21]); “+” in series [3] (setting [22]). The microbial growth entry in series [3] (setting [23]) is given as “+”; in series [3] (setting [24]), “+”; in series [3] (setting [25]), “−”; in series [3] (setting [26]) it was “−”; in series [3] (setting [27]), “−”; in series [3] (setting [28]), “+”. Besides, the microbial growth result in series [3] (setting [29]), in series [3] (setting [30]), in series [3] (setting [31]) and in series [3] (setting [32]) was “+” in each case. The “neutralizing 10 ppm of gluteraldehyde” value in series [3] was “effective”.

On to `C#CCO` [P, Propargyl alcohol], for which the microbial growth entry in series [2] (FT Diesel + 1 Wt %, Day 0) is on record as “−”; in series [2] (FT Diesel + 1 Wt %, Day 1) it was “−”; in series [2] (FT Diesel + 1 Wt %, Day 5), “−”; in series [2] (FT Diesel + 1 Wt %, Day 7), “−”; in series [2] (FT Diesel + 1 Wt %, Day 8), “−”; in series [2] (FT Diesel + 1 Wt %, Day 19), “−”. Also, the microbial growth result is reported as “−” in series [2] (FT Diesel + 100 ppm, Day 0); “−” in series [2] (FT Diesel + 100 ppm, Day 1); “−” in series [2] (FT Diesel + 100 ppm, Day 5); “+” in series [2] (FT Diesel + 100 ppm, Day 7); “+” in series [2] (FT Diesel + 100 ppm, Day 8); “+” in series [2] (FT Diesel + 100 ppm, Day 19). Further, the microbial growth result in series [2] (setting [5]), in series [2] (setting [6]), in series [2] (setting [7]), in series [2] (setting [8]), in series [2] (setting [9]) and in series [2] (setting [10]) was “−” in each case. For the same molecule, the microbial growth result in series [2] (setting [11]) was “−”; in series [2] (setting [12]), “−”; in series [2] (setting [13]) it was “+”; in series [2] (setting [14]), “+”; in series [2] (setting [15]) it was “+”; in series [2] (setting [16]) it was “+”. Also, the colour of growth entry in series [2] (setting [13]), in series [2] (setting [14]), in series [2] (setting [15]) and in series [2] (setting [16]) was “Yellow” each time.

On to `Nc1ccccc1` [aniline, Aniline], for which the “toxicity” value in series [3] is reported as “excessively toxic”. Moreover, the microbial growth entry in series [3] (setting [17]), in series [3] (setting [18]), in series [3] (setting [19]), in series [3] (setting [20]), in series [3] (setting [21]) and in series [3] (setting [22]) was “−” throughout. The microbial growth result in series [3] (setting [23]) and in series [3] (setting [24]) was “−” each time.

For `OCCNCCO` [DEA, Diethanolamine], in series [3], the “toxicity” value was “not excessively toxic”. The microbial growth entry in series [3] (setting [17]) is “−”; in series [3] (setting [18]), “+”; in series [3] (setting [19]), “+”; in series [3] (setting [20]), “+”; in series [3] (setting [21]), “+”; in series [3] (setting [22]) it was “+”. Further, the microbial growth entry was “+” in series [3] (setting [23]); “+” in series [3] (setting [24]); “−” in series [3] (setting [25]); “−” in series [3] (setting [26]); “−” in series [3] (setting [27]); “+” in series [3] (setting [28]). Besides, the microbial growth result in series [3] (setting [29]), in series [3] (setting [30]), in series [3] (setting [31]) and in series [3] (setting [32]) was “+” each time. Moreover, in series [3], the “neutralizing 10 ppm of gluteraldehyde” value was “effective”.

`NCCO` [MEA, Monoethanolamine] registered an LOEC in series [4] of 1700 mg/L. Moreover, the NOEC in series [4] worked out at 1000 mg/L. Also, in series [3], the “toxicity” value was “not excessively toxic”. Besides, the microbial growth result is on record as “−” in series [3] (setting [17]); “−” in series [3] (setting [18]); “−” in series [3] (setting [19]); “+” in series [3] (setting [20]); “+” in series [3] (setting [21]); “+” in series [3] (setting [22]). Moreover, the microbial growth entry is “+” in series [3] (setting [23]); “+” in series [3] (setting [24]); “−” in series [3] (setting [25]); “−” in series [3] (setting [26]); “−” in series [3] (setting [27]); “−” in series [3] (setting [28]). The microbial growth result in series [3] (setting [29]), in series [3] (setting [30]), in series [3] (setting [31]) and in series [3] (setting [32]) was “+” in each case. In series [3], the “neutralizing 10 ppm of gluteraldehyde” value was “effective”.
